Source: patent publication US8129527B2, “Analogs of dehydrophenylahistins and their therapeutic use” (Nereus Pharmacuticals, Inc., priority 2006, dated 2012)
Like-named read-outs stand apart in the source and are kept apart here.

Tests used:
[1] = test system: MES-SA/Dx5 (Taxol Resistant) human uterine sarcoma; experiment: Drug resistant cell line pair, cytotoxicity (Example 10B); assay type: cell-based; conditions: vs MES-SA
Text: 1) Human Uterine Sarcoma Tumor Cell Line Pair: MES-SA (Taxol Sensitive) and MES-SA/Dx5 (Taxol Resistant).

[2] = test system: HL-60/MX-2 (Mitoxantrone-Resistant); experiment: as above; assay type: cell-based, human; conditions: HL-60 Resistant IC50 relative to HL-60 Sensitive
Text: 2) Human Acute Promyelocytic Leukemia Cell Line Pair: HL-60 (Mitoxantrone-Sensitive) and HL-60/MX-2 (Mitoxantrone-Resistant)

[3] = test system: Jurkat cells; experiment: cells; assay type: cell-based
[4] = test system: HL-60/MX2 multidrug resistant; experiment: Cell growth inhibition assay, resazurin (Example 11); assay type: cell-based, human
Experimental: (§1) Human uterine sarcoma (MES-SA; CRL-1976), its multidrug resistant derivative (MES-SA/Dx5; CRL-1977), human acute promyelocytic leukemia cells (HL-60; CCL-240) and its multidrug resistant derivative (HL-60/MX2; CRL-2257) were purchased from ATCC and maintained in appropriate culture media. The cells were cultured in an incubator at 37° C. in 5% CO2 and 95% humidified air.
(§2) For cell growth inhibition assays, MES-SA and MES-SA/Dx5 cells were both seeded at 3×10^3 cells/well in 90 μl complete media into 96 well (Corning; 3904) black-walled, clear-bottom tissue culture plates and the plates were incubated overnight to allow cells to establish and enter log phase growth. HL-60 and HL-60/MX2 cells were both seeded at 5×10^4 cells/well in 90 μl complete media into 96 well plates on the day of compound addition. 20 mM stock solutions of the compounds were prepared in 100% DMSO and stored at −80° C. […] Ten μl volumes of the 10× serial dilutions were added to the test wells in triplicate and the plates returned to the incubator for 48 hours. The final concentration of DMSO was 0.25% in all samples.
(§3) Following 48 hours of drug exposure, 10 μl of 0.2 mg/ml resazurin (obtained from Sigma-Aldrich Chemical Co.) in Mg^2+, Ca^2+ free phosphate buffered saline was added to each well and the plates were returned to the incubator for 3-6 hours. […] Resazurin dye in medium without cells was used to determine the background, which was subtracted from the data for all experimental wells.
HL-60/MX2 is a multidrug resistant tumor cell line derived from the human promyelocytic leukemia cell line, HL-60 and expresses reduced topoisomerase II activity. The data presented in Table 20 summarize the growth inhibitory effects of NPI-2421, NPI-2463, NPI-2503, NPI-2504 and NPI-2506 against HL-60 and its multidrug resistant derivative HL-60/MX2. Mitoxantrone, the topoisomerase II targeting agent was included as a control.

[5] = test system: human hepatic P450s
Experimental: In the recent his study, (±)-phenylahistin was treated with rat hepatic microsome or human hepatic P450s.

[6] = test system: MES-SA human uterine sarcoma; experiment: Cell growth inhibition assay, resazurin (Example 11); assay type: cell-based; conditions: mean ± standard deviation of three independent experiments
Experimental: as §1, §2, §3
(§4) The multidrug resistant MES-SA/Dx5 tumor cell line was derived from the human uterine sarcoma MES-SA tumor cell line and expresses elevated P-Glycoprotein (P-gp), an ATP dependent efflux pump. The data in Table 19 summarize the growth inhibitory effects of NPI-2421, NPI-2463, NPI-2503, NPI-2504 and NPI-2506 against MES-SA and its multidrug resistant derivative MES-SA/Dx5. Paclitaxel, a known substrate of the P-gp pump was included as a control.

[7] = test system: MES-SA/Dx5 multidrug resistant; experiment: as above; assay type: cell-based, human
Experimental: as §1, §2, §3, §4

[8] = test system: MDA-231 human breast tumor; experiment: MDA-231 Human Breast Tumor Orthotopic Xenograft Model (mammary fat pad); assay type: in vivo, nude mice; conditions: Breast MDA-231 (1 study); Paclitaxel qdx5 alone
Experimental: (§5) The animals used were: female nude mice (nu/ni) (MDA-231 study) or B6D2F1 (B16-F10 studies) mice between 5 and 6 weeks of age (˜20 g, Harlan); group size was 10 mice per group unless otherwise indicated.
(§6) The cell lines used were: MDA-MB-231 human breast tumor and B16-F10 murine melanoma cells.
(§7) NPI compounds were administered as monotherapy via the intraperitoneal route at the doses indicated for the individual study; for the combination studies the selected reference chemotherapy agents were injected 15-30 min prior to the NPI compound.
Female nude mice were injected in the mammary fat pad with 2×10^6 MDA-231 cells harvested from in vitro cell culture. When the tumor size reached 5 mm×5 mm (about 14-28 days) the animals were matched into treatment and control groups. The study then proceeded as described for the HT-29 model, using paclitaxel as the standard chemotherapy agent.
In this model unless otherwise noted for the individual study, the test compounds were administered via the intraperitoneal route on Days 1, 4, 8, 11 and 15 (q3dx5); paclitaxel was administered via the intraperitoneal route on Days 1-5 (qdx5).
This model involves the placement of the human tumor tissue into the mouse mammary fat pad, a surrogate of the natural environment. In this manner the possibility of a positive effect due to a specific action on the subcutaneous vascular bed is avoided.

[9] = test system: B16-F10 murine melanoma cells; experiment: B16-F10 Metastatic Murine Melanoma Model; assay type: in vivo, B6D2F1 mice; conditions: monotherapy, lung surface metastases day 16
Experimental: as §5, §6, §7
Mice received B16-F10 cells (prepared from an in vitro cell culture of B16-F10 cells) by the iv route on Day 0. On Day 1 mice were randomized into treatment and control groups and treatment commenced. Mice were weighed twice weekly, starting on Day 1. All mice are sacrificed on Day 16, the lungs removed, weighed and the surface colonies counted. Results are expressed as mean colonies of treated mice/mean colonies of control mice (T/C)×100%). The metastasis growth inhibition (MGI) is this number subtracted from 100%. Paclitaxel was the standard chemotherapy agent used in this study.
In this model unless otherwise noted for the individual study, the test compounds were administered via the intraperitoneal route on Days 1-5 (qdx5); paclitaxel was administered intravenously on Days 1-5(qdx5).

[10] = test system: DU-145 human prostate tumor; experiment: DU-145 Human Prostate Tumor Xenograft Model; assay type: in vivo, nude mice; conditions: taxotere alone
Experimental: When the tumors reached 5 mm×5 mm (at about 13-17 days) the animals were matched into treatment and control groups.
In this model unless otherwise noted for the individual study, test compounds were administered via the intraperitoneal route on Days 1, 3, 5, 8 and 11 (q3dx5); taxotere was administered intravenously on Days 1, 3 and 5 (q2dx3).

[11] = test system: MCF-7 human breast tumor; experiment: MCF-7 Human Breast Tumor Xenograft Model; assay type: in vivo, nude mice; conditions: Breast MCF-7 (2 studies); Taxotere Days 1, 3, 5 alone
Experimental: (§8) Animals used were (exceptions are indicated for individual studies): female nude mice (nu/nu) between 5 and 6 weeks of age (˜20 g, Harlan); group size was 9-10 mice per group unless otherwise indicated.
(§9) Selected novel compounds were administered as monotherapy via the intraperitoneal (i.p.) route at the doses indicated for the individual study; for the combination studies the selected reference chemotherapy agents were injected 15-30 min prior to the compound.
(§10) Saline dilutions are used to achieve the injection concentrations used for the reference compounds.
Female nude mice (˜20 g) were implanted s.c. with 21-day release estrogen (0.25 mg) pellets 24 hours prior to the s.c. implantation with MCF-7 tumor fragments (harvested from s.c. tumors in nude mice hosts). The study then proceeded as described for the HT-29 model, using taxotere as the standard chemotherapy agent.
In this model unless otherwise noted for the individual study, the novel compounds were injected via the intraperitoneal route daily on Days 1-5, inclusive (qdx5); taxotere was administered intravenously on Days 1, 3 and 5 (qodx3).
The doses of the compounds were administered on Days 1, 2, 3, 4, and 7; Taxotere was administered on Days 1, 3 and 7.

[12] = test system: A549 human non small cell lung tumor; experiment: A549 Human Lung Tumor Xenograft Model; assay type: in vivo, nude mice
Experimental: as §8, §9, §10
Animals were implanted s.c. by trocar with fragments of A549 tumors harvested from s.c. growing tumors in nude mice hosts. When the tumor size reached 5 mm×5 mm (about 10-17 days) the animals were matched into treatment and control groups.

[13] = test system: Jurkat cells (human T cell leukemia line); experiment: DNA fragmentation (DNA laddering); assay type: cell-based
Text: A late stage characteristic of apoptosis is internucleosomal DNA cleavage that results in a distinctive ladder pattern that can be visualized by gel electrophoresis.

[14] = test system: HT-29 human colon cells; experiment: Tumor cytotoxicity assay, resazurin fluorescence, 48 h (Example 6); assay type: cell-based
[15] = test system: PC-3 prostatic adenocarcinoma cells; experiment: as above; assay type: cell-based, human; conditions: Homo sapiens; Table 2; read-out: EC50 (nM) PC-3
Experimental: 10× concentrated serial dilutions of the two compounds were prepared in appropriate culture medium for final concentrations ranging from 2.0×10^−5 M to 2.0×10^−10 M. Ten μl volumes of the 10× serial dilutions were added to the test wells in triplicate and the plates returned to the incubator for 48 hours.
as §3, with “exposure” for “exposure,”, “PBS” for “phosphate buffered saline”, “3-4” for “3-6”, “dye” for “dye in medium”, “wells. The data were analyzed using Prism software (GraphPad Software).” for “wells.”
PC-3, a human prostate adenocarcinoma, was maintained in F12K complete medium (F12K medium supplemented with 10% FBS; 2 mM Glutamine; 1% HEPES; and Pen/Strep at 100 IU/ml and 100 µg/ml, respectively).

[16] = test system: P388 murine leukemia cells; experiment: Cytotoxic effect in P388 cells; assay type: cell-based; conditions: Mus musculus, P388, read-out: IC50 (nM) P-388; Table 2
Text: The cytotoxic effects of phenylahistin, dehydrophenylahistin and various derivatives of dehydrophenylahistin were examined in P388 murine leukemia cells, HT-29 human colon cells, and PC-3 prostatic adenocarcinoma cells.

[17] = test system: Aspergillus fumigatus; experiment: Antifungal susceptibility testing, broth dilution (MIC/MFC); assay type: cell-based; conditions: Aspergillus fumigatus, read-out: MIC
Outline: (§11)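 Tested against two isolates per species (one for C. glabrata). After MIC, fungicidal concentration determined by plating 0.1 μl from MIC and each higher concentration.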

[18] = test system: Candida albicans; experiment: as above; assay type: cell-based; conditions: Candida albicans; C. albicans 90028; read-out: MIC
Outline: as §11

[19] = test system: Candida glabrata; experiment: as above; assay type: cell-based; conditions: Nakaseomyces glabratus; C. glabrata; read-out: MIC
Outline: as §11

[20] = test system: Trichophyton rubrum; experiment: as above; assay type: cell-based; conditions: in words
Outline: as §11

[21] = test system: Trichophyton mentagrophytes; experiment: as above; assay type: cell-based; conditions: in words
Experimental: Specifically, disclosed compounds were evaluated alongside commercially available microtubulin inhibitors as well as recognized antifungal agents. […].
Microorganisms against which these compounds were tested included: Candida albicans, Candida glabrata, Aspergillus fumigatus, Trichophyton rubrum, Trichophyton mentagrophytes, Epidermophyton floccosum. With the exception of Candida glabrata (one isolate), two isolates of each species were tested.
Drug concentrations were 0.03-16 μg/ml for the investigational compounds, 0.015-8 μg/ml for itraconazole and griseofulvin.
The minimum lethal concentration (MLC) was determined by plating […] from the MIC concentration and each concentration above the MIC. […] When a MIC was obtained, a minimum fungicidal concentration (MFC) was determined to assess the fungistatic/fungicidal nature of the compound. […] The compound is scored as fungistatic if the cells are able to resume growth and fungicidal if no regrowth is possible because the compound had killed the organisms.

[22] = Lung A549 (1 study), Taxotere Days 1, 3, 5 alone

## O=C1c2c(O)ccc(O)c2C(=O)c2c(NCCNCCO)ccc(NCCNCCO)c21 [mitoxantrone, Mitoxantrone, reference compound]
[1]
  reduced susceptibility of the MES-SA/DX5 cell line: 20 fold
[2]
  Ratio to Sensitive: 24.1
[3]; Homo sapiens, Jurkat, read-out: Cytotoxicity Potency IC50
  IC50: 41 nM
[3]; human
  Cytotoxicity Efficacy % Cell Death: 99%
[4]; ratio of EC50 values (HL-60/MX2:HL-60)
  Fold change: 26
[4]; vs HL-60
  less active against the resistant HL-60/MX2 cells: ~26 times

## (±)-phenylahistin
[5]
  major metabolites P1 and P3, share of the recovered metabolites: more than 60%
  metabolites detected: at least seven metabolites were detected

## CC(=O)O[C@H]1C(=O)[C@@]2(C)[C@H]([C@H](OC(=O)c3ccccc3)[C@]3(O)C[C@H](OC(=O)[C@H](O)[C@@H](NC(=O)c4ccccc4)c4ccccc4)C(C)=C1C3(C)C)[C@]1(OC(C)=O)CO[C@@H]1C[C@@H]2O [Paclitaxel, reference compound]
[6]
  EC50: 4.8 ± 2.1 nM
[7]; Homo sapiens, MES-SA/Dx5, mean ± standard deviation of three independent experiments
  EC50: 2000 ± 150 nM
[7]; ratio of EC50 values (MES-SA/Dx5:MES-SA)
  Fold change: 417
[7]; vs MES-SA
  less active against the resistant MES-SA/Dx5 cells: ~400 times
[8]
  Tumor Growth Inhibition (%) Reference Agent: 53%
  Tumor Regression (#/total) Reference Agent: 1/10
[9]
  MGI (metastasis growth inhibition): 35.0%

## CC(=O)O[C@@]12CO[C@@H]1C[C@H](O)[C@@]1(C)C(=O)[C@H](O)C3=C(C)[C@@H](OC(=O)[C@H](O)[C@@H](NC(=O)OC(C)(C)C)c4ccccc4)C[C@@](O)([C@@H](OC(=O)c4ccccc4)[C@H]21)C3(C)C [Taxotere, reference compound]
[10]
  TGI vs NCI criterion: did not reach the NCI established criterion for a positive effect
[11]
  Tumor Regression (#/total) Reference Agent: 0/20
[12]; [22]
  Tumor Growth Inhibition (%) Reference Agent: 26%
  Tumor Regression (#/total) Reference Agent: 0/10
[12]; taxotere alone
  TGI: 26.1%

## phenylahistin [halimide, reference compound]
[13]
  DNA laddering potency compared with KPU-2: much less potent

## C=CC(C)(C)c1[nH]cnc1/C=c1\[nH]c(=O)/c(=C/c2ccccc2)[nH]c1=O [KPU-1, Dehydrophenylahistin]
[14]; Homo sapiens, HT-29, Table 2, read-out: EC50 (nM) HT-29
  EC50: 48 nM
[14]; Homo sapiens, HT-29, Table 5, synthetic potent dehydroPLH derivatives, read-out: EC50
  EC50: 48 nM
[14]; Table 6, proliferation of HT-29 cells, read-out: EC50
  EC50: 48 nM
[15]
  EC50: 4.7 nM
[16]
  IC50: 36 ± 12.8 nM
[13]
  DNA laddering potency compared with KPU-2: much less potent
[17]; A. fumigatus isolate #1
  MIC: > 16 µg/mL
[17]; A. fumigatus isolate #2
  MIC: > 16 µg/mL
[18]
  MIC: > 68 µg/mL
[19]
  MIC: > 68 µg/mL
[20]
  antifungal potency versus T. rubrum: significantly less potent than the other compounds
[21]
  antifungal potency versus the sensitive T. mentagrophytes isolate: weaker but more comparable to the others
